Structures are written as SMILES.

In turn, `O=C1CN(c2ccc(OC(F)(F)C(F)F)cc2)C(=O)CN1` yielded a melting point greater than 250 °C.
As to `Cc1cc2c(c(C)c1O)CCC(C)(C#N)O2` (stereo not given), the melting point came out at 135 °C.
The molecule `CCC#CCOc1ccc(/C=C/C(=O)Nc2ccccc2C(=O)O)cc1OC` came in with a melting point of 186 °C.
As to `CCCOC(=O)CCNCC(O)COc1ccccc1C#N` (stereo not given), the melting point turned out to be 89 °C.
Under `CCCNC(=O)NCc1ccc2c(c1)C(=O)N(C1CCC(=O)NC1=O)C2=O` (stereo not given) stands 166 to 168 °C.
Next, `CCCN(CCC)Cc1cnc(-c2ncn3c2CN(C)C(=O)c2cc(F)ccc2-3)o1`: 123 to 125 °C.
On to `COc1ccc(-c2cnn(-c3ccc(N4C[C@H](CNC(C)=O)OC4=O)cc3F)c2)cc1`, for which the melting point fell in the range of 226 to 228 °C.
As to `CC(=O)Cn1nc(C)oc1=O`, the melting point was in the range of 55 to 58 °C.
Next, `CC(C)n1nc(-c2cccc(Cl)c2)c2ncccc2c1=O`: 80 to 81 °C.
Next, `Cc1cc(C)cc(C=CC#N)c1`: 67 to 68 °C.
For `CCc1cc(SCc2ccc(-c3ccccc3C#N)cc2)n2nccc2n1`, the melting point is 153 to 155 °C.
Next, `CN1CCCc2cc(C(C)(C(=O)O)c3ccc4c(c3)CCCN4C)ccc21`: 155 to 157 °C.
Take `COc1cc(C(=O)CC(=O)C(C)(C)C)cc(OC)c1OC`: the melting point fell in the range of 67.3 to 68.4 °C.
For the molecule `c1cc2c3c(c1)Cc1c(ccc4c1OCO4)C3CNC2` (stereo not given), the melting point lay within 175 to 176 °C.
Next, `CCCCCc1c(/C=C/C(=O)O)n(C)c2cc(OC)ccc12`: 157 to 158 °C; `Cc1c2ccccc2c(-c2cc(Br)c(O)c(Br)c2)c2c1sc1ccccc12`: 224 to 226 °C; `CCn1c(N)c(-c2ncc[nH]2)c(=O)c2ccc(C#CC(O)(c3ccccc3)C(F)(F)F)nc21` (stereo not given): 260 °C.
In the case of `O=C(c1ccc(F)cc1)n1c2c(c3ccccc31)CC(C(=O)O)(C(=O)O)CC2`, the melting point is 190 to 195 °C.
As to `N#CC1CN1C(=O)NSC(F)(F)F` (stereo not given), the melting point lay in the range of 83 to 85 °C.
For `Oc1cccc(CCN2CCCC2)c1`, the melting point is 99 to 102 °C.
As to `CN1Cc2c(C#CBr)ncn2-c2ccc(F)cc2C1=O`, the melting point was 167 °C.
The molecule `Cc1ccc(C(=O)n2c3c(c4ccccc42)C(C(=O)O)CCC3)cc1` (stereo not given) gave a melting point of 181 to 183 °C.
On to `CC1(C)OC(=O)N(c2ccc(F)c(F)c2)c2ccccc21`, for which the melting point lay in the range of 207 to 208 °C.
Turning to `CCCCCCCCCCCCCCCCCCN1C(=O)CC(c2cc(C(C)(C)C)c(O)c(C(C)(C)C)c2)C1=O` (stereo not given), the melting point was 70 to 73 °C.
The molecule `O=C(O)CCC(=O)N1CCN(c2ccncc2)CC1` displayed a melting point of 261 to 263 °C.
Under `CCN(CC)C(=O)C(C)Cc1nc(-c2ccccc2)cc2ccccc12` (stereo not given) stands 57 °C; under `O=C1c2ccccc2-n2cnc(-c3nc(C4CC4)no3)c2[C@@H]2CCCN12`, 211 to 212 °C; under `Cc1ccc(Cn2nc(C(=O)O)cc2-c2ccc(F)cc2)cc1Cl`, 120 °C.
For `COc1c(OCc2ccccc2)c(OC)c2c(=O)cc(-c3ccc(OCc4ccccc4)cc3)oc2c1OC`, the melting point lay within 172 to 173 °C.
Under `Nc1nc2c(s1)CN(C(=S)NC(=O)c1ccccc1)CC2` stands 158 to 160 °C; under `COc1ccc(CNc2nc(SC)ncc2C(=O)OCc2ccccn2)cc1Cl`, 117 to 118 °C.
`COc1ccc(C=NO)cc1-c1cc2c(cc1C)C(C)(C)CCC2(C)C` yielded a melting point of 152 °C.
Under `O=C(Cc1ccc(C(=O)O)cc1)C(=O)c1ccccc1` stands 192 to 195 °C; under `COc1ccc(N2CCN(CCC3OCCc4cc(C(=O)N(C)C)ccc43)CC2)cc1` (stereo not given), 94 to 96 °C.
Under `CCOC(=O)C1=C(CO)NC(C)=C(C(=O)OCCO)C1c1ccccc1[N+](=O)[O-]` (stereo not given) stands 167 to 169 °C.
Under `CCCCS(=O)CCCNc1cc2oc(=O)[nH]c2cc1F` (stereo not given) stands 116 to 117 °C.
For `C=CCn1c(C)nc2c3c(ccc21)[C@@H](OCCOC)[C@H](O)[C@@H](c1ccccc1)O3`, the melting point stood at 79 °C.
Next, `CC12CCC3(CC1CCC1C2CCC2(C)C(N)C(O)CC12)OCCO3` (stereo not given): 254 to 258 °C; `COC(=O)c1cccc(NC(=O)Oc2ccc([N+](=O)[O-])cc2)c1`: 184 to 186 °C; `COc1ccc(N2CCN(c3c(C)c(C)c4c(c3C)C(O)(c3ccc(Cl)cc3)C(C)(C)O4)CC2)cc1` (stereo not given): 153 to 155 °C.
Under `COC(OC)/C(=C/c1ccc(Cl)cc1Cl)c1ccc(Cl)cc1` stands 87 to 90 °C; under `Cc1ccc(S(=O)(=O)N2CCc3c(sc(N)c3C(=O)c3ccccc3)C2)cc1`, 165 to 167 °C.
Molecule `N#Cc1ccc(-c2ccc(Br)cc2)cc1` yielded a melting point of 147 to 148 °C.
Next, `C=CCc1cc2c(c(CC=C)c1O)N(CC=Cc1ccccc1)C(=O)CC2`: 132 to 138 °C; `O=C(NCc1ccncc1)c1cc2ccnc(NCc3ccccc3)c2[nH]1`: 199 to 200 °C; `CON(C)C(=O)c1cc2sc(C)c(N(C)S(=O)(=O)c3cccs3)c2[nH]1`: 187 °C.
Molecule `O=c1c(-c2ccccc2)ccc2n1CCc1ccccc1-2` returned a melting point of 140 °C.
Next, `S=C(NCN1CCOCC1)C(c1ccccc1)c1ccccn1` (stereo not given): 128 to 130 °C; `Cc1ccc(/C=C/c2ccc(Cl)cc2[N+](=O)[O-])c([N+](=O)[O-])c1`: 230 °C; `COC(=O)c1cc2cc(OC)ccc2n1C`: 200 °C.
`CCC(CC)(c1ccc(F)cc1F)c1c[nH]c2c(NS(C)(=O)=O)cccc12` registered a melting point of 144 to 147 °C.
Under `COc1cc(OC)cc(C(=O)NNC(=O)Nc2cccc3c2C(=O)c2c-3n[nH]c2-c2ccc(N3CCNCC3)cc2)c1` stands greater than 300 °C; under `N#Cc1nc2ncccc2[nH]1`, 200 °C; under `CCOc1ccc(C(=O)[C@H]2CC=CC[C@H]2C(=O)O)cc1OCC` (relative stereo), 125 to 127 °C.
Under `CCOC(=O)C(Cc1nc2ccccc2n1Cc1ccc([N+](=O)[O-])cc1)C(=O)OCC` stands 135 °C; under `Cc1ccc2c3c(ccc2n1)OCC(CN1CCC2(CC1)C(=O)NCN2c1ccccc1)O3` (stereo not given), 199 to 201 °C; under `CC1c2ccccc2CCC1CC#N` (stereo not given), less than 20 °C.
Under `CCc1sc2nc(=NS(=O)(=O)c3ccc(C)cc3)sn2c1-c1ccc2c(c1)CCCC2` stands 151 to 152 °C; under `Cc1nn(C)c(-n2ccc3cc(Cl)cnc32)c1/C=C/C(=O)NS(=O)(=O)NCC1CC1`, 209 to 210 °C; under `CC(C)(C)OC(=O)c1ccc(N)cc1F`, 100 to 101 °C.
`COc1ccc2c(c1)C(C#Cc1ccccc1)(C(F)(F)F)NC(=O)N2` (racemic) yielded a melting point of 206 to 208 °C.
`O=c1[nH]c2ccc(C3=NOC(CN4CCC(S(=O)c5ccc(F)cc5)CC4)C3)cc2o1` (stereo not given) yielded a melting point of 170 to 178 °C.
Under `COc1ccc(/C(C)=C/C=C/C(=O)O)cc1` stands 174 to 177 °C; under `CCCc1c(OCCCCCCc2ccc(OC)c(OC)c2Cl)ccc(C(=O)O)c1O`, 107 to 108 °C; under `Nc1nc(Cl)c2ncn(OCCOCP(=O)(O)O)c2n1`, 190 to 195 °C.
Next, `COc1c(N)cc(C2(C)CC2)cc1NS(C)(=O)=O`: 144 to 146 °C; `N#Cc1cn(COCCO)c2ncnc(N)c12`: 178 °C.
Next, `Cc1c(OCCCCCCC(=O)N(C)c2ccccc2)ccc([N+](=O)[O-])c1C=O`: 72 to 73 °C; `CN1C2=NCCCN2C(=O)c2cc(Cl)ccc21`: 119 to 120 °C.
For the molecule `Cc1cc(COc2ccc(S(=O)(=O)NC[C@@H](C(=O)NO)N3CCN(Cc4ccc(C(F)(F)F)cc4)CC3)cc2)c2ccccc2n1`, the melting point came out at 148 °C.
For `COc1ccc2c(c1)c1c3c(c(-c4ccccc4Cl)cc1n2CCC(N)=O)C(=O)NC3=O`, the melting point fell in the range of 283 to 286 °C.
Regarding `O=C(O)c1cn(C2CC2)c2c(F)c(N3CCC(n4ncnn4)C3)c(F)cc2c1=O` (stereo not given), the melting point lay in the range of 192 to 199 °C.
Next, `CCCN(CCC)CCc1ccc(O)c2[nH]ncc12`: 125 to 127 °C; `O=c1cccc(-c2ccc(Cl)cc2)[nH]1`: 200 to 203 °C; `CCOCc1nc2c(N)nc3ccccc3c2n1CCCNC(=O)OC(C)(C)C`: 124 to 126 °C.
Under `COC(=O)c1cccc([N+](=O)[O-])c1N` stands 92 to 93 °C.
Under `COc1ccc2c(c1Cl)Sc1ccccc1N2C` stands 136 °C; under `C=C1CC2C(CCC3(C)C(OC(C)=O)CCC23)C2(C)CCC(=O)C=C12` (stereo not given), 138 to 140 °C.
With `O=C(CC1CCN(CCCn2c(=O)[nH]c3ccccc32)CC1)c1cccc(Cl)c1`, the melting point came out at 160 °C.
Under `O=c1cnc(C(F)(F)F)cn1-c1c(Cl)cc(C(F)(F)F)cc1Cl` stands 109 to 111 °C; under `CSc1nc(-c2ccccc2)n(-c2ccc(C)cc2)c(=O)c1C#N`, 258 to 260 °C.
Under `CCCCCOC(=O)c1ccc(S(N)(=O)=O)cc1` stands 96 to 98 °C; under `Oc1cc(Cl)ccc1Br`, 56 °C.
Next, `COc1ccc(CSc2nc(NC(CO)CO)c3ncc(=O)[nH]c3n2)cc1Cl`: 209 to 211 °C; `CCN(CC)CCCC1CCN(CCNC(=O)N2c3ccccc3NC(=O)c3csc(C)c32)CC1`: 131 to 133 °C.
With `COc1ccc(N2CCN(CCC3OCCc4ccc(Br)cc43)CC2)cc1` (stereo not given), the melting point was in the range of 78 to 79 °C.
Under `Cc1cc(CBr)cc(CBr)c1` stands 65 to 66 °C; under `CC(=O)OCc1c(Br)cccc1N1CCc2c(sc3c2CCCC3)C1=O`, 74 to 75 °C; under `O=C(Cl)c1cc(OCc2ccccc2)cc([N+](=O)[O-])c1`, 84 to 85 °C.
Next, `CC1(C)OC(=O)C(Oc2cc(F)cc(F)c2)=C1c1ccc(S(C)(=O)=O)cc1`: 159 to 161 °C.

The record behind these values is a melting point compilation (Tetko et al.; mined from patent text by program, amines drawn as free bases though some values may be those of a salt).
